# Data published in patent publication US12448368B2, “Indole compounds as androgen receptor modulators” (NIDO BIOSCIENCES, INC., priority 2020, dated 2025).
# Target: T1, androgen receptor (AR) (Homo sapiens, UniProt P10275, T878A)
# T1 construct: LNCaP cells expressing ARR2PB-FireflyLuc and CMV-RenillaLuc; endogenous in cells; host or cells: LNCaP cells carrying ARR2PB-FireflyLuc and CMV-RenillaLuc reporters
# T1 sequence (P10275 1-920 T878A): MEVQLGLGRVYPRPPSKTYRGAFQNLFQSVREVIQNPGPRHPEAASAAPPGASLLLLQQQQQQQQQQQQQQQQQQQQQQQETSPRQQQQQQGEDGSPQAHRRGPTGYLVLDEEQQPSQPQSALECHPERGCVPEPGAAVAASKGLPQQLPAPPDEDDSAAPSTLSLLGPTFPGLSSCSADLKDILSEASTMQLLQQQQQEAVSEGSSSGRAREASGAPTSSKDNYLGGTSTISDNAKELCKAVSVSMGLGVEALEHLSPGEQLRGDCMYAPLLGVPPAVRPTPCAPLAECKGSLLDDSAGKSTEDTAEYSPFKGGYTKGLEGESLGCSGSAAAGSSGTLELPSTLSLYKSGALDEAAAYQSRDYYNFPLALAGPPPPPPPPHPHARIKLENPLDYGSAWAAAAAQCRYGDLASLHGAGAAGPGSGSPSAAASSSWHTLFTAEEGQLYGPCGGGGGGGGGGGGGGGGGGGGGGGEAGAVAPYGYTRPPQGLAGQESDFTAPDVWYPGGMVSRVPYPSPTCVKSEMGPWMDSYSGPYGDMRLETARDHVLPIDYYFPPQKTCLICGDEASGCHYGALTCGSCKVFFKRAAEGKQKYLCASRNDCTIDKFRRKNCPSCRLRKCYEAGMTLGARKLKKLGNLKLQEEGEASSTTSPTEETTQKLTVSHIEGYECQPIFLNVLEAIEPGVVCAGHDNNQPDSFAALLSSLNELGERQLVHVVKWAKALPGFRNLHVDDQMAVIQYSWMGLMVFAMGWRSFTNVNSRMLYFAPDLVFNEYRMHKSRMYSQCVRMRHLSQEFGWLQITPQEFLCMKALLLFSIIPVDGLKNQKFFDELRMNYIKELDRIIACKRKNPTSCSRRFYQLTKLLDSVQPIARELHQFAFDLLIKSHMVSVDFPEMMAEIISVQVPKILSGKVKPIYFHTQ
# Experiment: AR reporter assay in LNCaP cells expressing ARR2PB-FireflyLuc and CMV-RenillaLuc, antagonist mode (% remaining activity, IC50)
# Type: cell-based
# Conditions: 48 h at 37° C., class symbols A-D, read-out: IC50
# Procedure, shortened: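 LNCaP cells carrying ARR2PB-firefly and CMV-Renilla luciferase reporters were treated 48 h at 37 °C with compound plus 0.5 nM DHT. Signals were normalised between 0.5 nM DHT alone and 10 uM enzalutamide + DHT to give % remaining activity, and IC50 was obtained by non-linear regression.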
row,IC50 [nM],Structure (SMILES)
1,100 to 1000,CC(=O)N1CCC(Oc2ncc(-c3c[nH]c4c(C#N)cccc34)nc2C)C1 (stereo not drawn) [Compound 194]
2,100 to 1000,COC(C)CNc1ccc(-c2c[nH]c3c(C#N)cccc23)nc1C (stereo not drawn) [Compound 195]
3,1000 to 10000,Cc1nc(-c2c[nH]c3c(C#N)cccc23)ccc1NCCN(C)C [Compound 196]
4,> 10000,Cc1nc(-c2c[nH]c3c(C#N)cccc23)ccc1NCC(=O)N(C)C [Compound 197]
5,100 to 1000,Cc1nc(-c2c[nH]c3c(C(F)(F)F)cccc23)cnc1OC1CCNC1 (stereo not drawn) [Compound 198]
6,1000 to 10000,Cc1nc(-c2c[nH]c3c(C#N)cccc23)ccc1OC1CCNC1=O (stereo not drawn) [Compound 199]
7,> 10000,Fc1ccc(-c2c[nH]c3cnccc23)nc1 [Compound 200]
8,1000 to 10000,Fc1ccc(-c2c[nH]c3cccnc23)nc1 [Compound 201]
9,100 to 1000,Fc1ccc(-c2c[nH]c3cc(F)cnc23)nc1 [Compound 202]
10,1000 to 10000,Cc1ccc2c(-c3ccc(F)cc3)c[nH]c2n1 [Compound 203]
11,100 to 1000,N#Cc1cc(F)cc2c(-c3ccc4ccc(F)cc4n3)c[nH]c12 [Compound 204]
12,100 to 1000,CC1NC(=O)c2ccc(-c3c[nH]c4c(C#N)cccc34)nc21 (stereo not drawn) [Compound 205]
13,100 to 1000,CC1(C)NC(=O)c2ccc(-c3c[nH]c4c(C#N)cccc34)nc21 [Compound 206]
14,100 to 1000,Cc1nc(-c2c[nH]c3c(Cl)cccc23)ccc1N [Compound 207]
15,> 10000,Cc1nc(-c2c[nH]c3c(S(C)(=O)=O)cccc23)ccc1N [Compound 208]
16,100 to 1000,Nc1ccc(-c2c[nH]c3cc(F)c(F)cc23)nc1Cl [Compound 209]
17,< 100,Cc1nc(-c2c[nH]c3c(C#N)c(F)ccc23)ccc1N [Compound 210]
18,> 10000,COc1ccc2c(-c3ccc(N)c(C)n3)c[nH]c2c1C#N [Compound 211]
19,< 100,Cc1cncc(-c2c[nH]c3c(Cl)cccc23)n1 [Compound 212]
20,100 to 1000,N#Cc1cccc2c(-c3cncc(N4CCC4)n3)c[nH]c12 [Compound 213]
21,100 to 1000,CCc1nc(-c2c[nH]c3c(C#N)cccc23)cnc1N [Compound 214]
22,< 100,COc1cncc(-c2c[nH]c3c(C#N)cccc23)n1 [Compound 215]

row,IC50 [nM],Structure (SMILES)
1,100 to 1000,CC1(C)NC(=O)c2ccc(-c3c[nH]c4cc(F)ccc34)nc21 [Compound 216]
2,100 to 1000,CN1C(=O)c2ccc(-c3c[nH]c4c(Cl)cccc34)nc2C1(C)C [Compound 217]
3,100 to 1000,CC1(C)NC(=O)c2ccc(-c3c[nH]c4c(Cl)cccc34)nc21 [Compound 218]
4,100 to 1000,Cc1nc(-c2c[nH]c3c(C#N)cccc23)ccc1NCC(C)(C)O [Compound 219]
5,100 to 1000,Cc1nc(-c2c[nH]c3c(C#N)cccc23)ccc1NCCN [Compound 220]
6,100 to 1000,COCC(C)Nc1ccc(-c2c[nH]c3c(C#N)cccc23)nc1C (stereo not drawn) [Compound 221]
7,1000 to 10000,N#Cc1cccc2c(-c3cnc(OC4CCNC4)cn3)c[nH]c12 (stereo not drawn) [Compound 222]
8,1000 to 10000,Cc1nc(-c2c[nH]c3c(C#N)cccc23)cnc1OC1C2CNCC21 (stereo not drawn) [Compound 224]
9,> 10000,Cc1nc(OC2C3CNCC32)cnc1-c1c[nH]c2c(C#N)cccc12 (stereo not drawn) [Compound 225]
10,100 to 1000,N#Cc1cccc2c(-c3cnc(NC4CCNC4)c(OC(F)F)n3)c[nH]c12 (stereo not drawn) [Compound 226]
11,> 10000,Cc1nc(-c2c[nH]c3c(C#N)cccc23)cnc1N1CCC(N)C1 (stereo not drawn) [Compound 227]
12,> 10000,COCC(COC)Nc1ncc(-c2c[nH]c3c(C#N)cccc23)nc1C [Compound 228]
13,100 to 1000,N#Cc1cccc2c(-c3ccc(OC4CCNC4)c(F)c3)c[nH]c12 (stereo not drawn) [Compound 229]
14,100 to 1000,Cc1nc(-c2c[nH]c3c(C#N)cccc23)ccc1OC1CCNC1 (stereo not drawn) [Compound 230]
15,> 10000,Cc1nc(-c2c[nH]c3c(C#N)cccc23)cnc1NC1CCNCC1 [Compound 231]
16,> 10000,Cc1nc(-c2c[nH]c3c(C#N)cccc23)cnc1NC1CCCNC1 (stereo not drawn) [Compound 232]
17,> 10000,Cc1nc(-c2c[nH]c3c(C#N)cccc23)cnc1OC1CCNCC1 [Compound 233]
18,> 10000,Cc1nc(-c2c[nH]c3c(C#N)cccc23)cnc1OC1CCCNC1 (stereo not drawn) [Compound 234]
19,> 10000,CC1(C)c2nc(-c3c[nH]c4c(C#N)cccc34)ccc2C(=O)N1CCCO [Compound 235]
20,> 10000,CC1(C)c2nc(-c3c[nH]c4c(C#N)cccc34)ccc2C(=O)N1CCCCO [Compound 236]
21,100 to 1000,N#Cc1cccc2c(-c3ccc(OC4CCNC4)c(Cl)n3)c[nH]c12 (stereo not drawn) [Compound 237]
22,1000 to 10000,Cc1nc(-c2c[nH]c3c(Cl)cccc23)ccc1OC1CCNC1 (stereo not drawn) [Compound 238]

row,IC50 [nM],Structure (SMILES)
1,1000 to 10000,Cc1nc(-c2c[nH]c3c(C#N)cccc23)cnc1OC1CNC1 [Compound 239]
2,100 to 1000,CC(=O)N1CC(Oc2ncc(-c3c[nH]c4c(C#N)cccc34)nc2C)C1 [Compound 240]
3,1000 to 10000,N#Cc1cccc2c(-c3ccc(OC4CCNC4)c(Cl)c3)c[nH]c12 (stereo not drawn) [Compound 241]
4,> 10000,N#Cc1cccc2c(-c3cnc(OC4CCNC4)c(OC(F)F)n3)c[nH]c12 (stereo not drawn) [Compound 244]
5,1000 to 10000,N#Cc1cccc2c(-c3cnc(OC4CCNC4)c(C(F)(F)F)n3)c[nH]c12 (stereo not drawn) [Compound 245]
6,100 to 1000,Cc1nc(-c2c[nH]c3c(C#N)cccc23)cnc1OC[C@H]1[C@@H]2CNC[C@@H]21 [Compound 246]
7,1000 to 10000,Cc1nc(-c2c[nH]c3c(C#N)cccc23)cnc1OC[C@@H]1[C@@H]2CNC[C@@H]21 [Compound 247]
8,1000 to 10000,Cc1nc(-c2coc3c(Cl)cccc23)cnc1N [Compound 248]
9,> 10000,CCc1nc(-c2c[nH]c3c(C#N)cccc23)cnc1OC1CCNC1 (stereo not drawn) [Compound 249]
10,100 to 1000,COc1nc(-c2c[nH]c3c(C#N)cccc23)cnc1NC1CCNC1 (stereo not drawn) [Compound 250]
11,1000 to 10000,CCOc1nc(-c2c[nH]c3c(C#N)cccc23)cnc1NC1CCNC1 (stereo not drawn) [Compound 251]
12,1000 to 10000,N#Cc1cccc2c(-c3ccc(OC4CCNC4)c(C(F)(F)F)n3)c[nH]c12 (stereo not drawn) [Compound 252]
13,> 10000,CCc1nc(-c2c[nH]c3c(Cl)cccc23)cnc1OC1CCNC1 (stereo not drawn) [Compound 253]
14,1000 to 10000,Fc1cc(-c2c[nH]c3c(Cl)cccc23)ccc1OC1CCNC1 (stereo not drawn) [Compound 254]
15,1000 to 10000,Cc1nc(-c2n[nH]c3cc(F)c(F)cc23)ccc1OC1CCNC1 (stereo not drawn) [Compound 255]
16,1000 to 10000,Cc1nc(-c2n[nH]c3c(Cl)cccc23)ccc1OC1CCNC1 (stereo not drawn) [Compound 256]
17,100 to 1000,CC(=O)N1CCC(Oc2ncc(-c3c[nH]c4c(Cl)cccc34)nc2C)C1 (stereo not drawn) [Compound 257]
18,100 to 1000,CC(=O)N1CCC(Oc2ncc(-c3c[nH]c4c(C(F)(F)F)cccc34)nc2C)C1 (stereo not drawn) [Compound 258]
19,100 to 1000,CC(=O)N1CCC(Oc2ncc(-c3c[nH]c4c(C#N)cccc34)nc2Cl)C1 (stereo not drawn) [Compound 259]
20,100 to 1000,CC(=O)N1CCC(Oc2ccc(-c3c[nH]c4c(C#N)cccc34)nc2C)C1 (stereo not drawn) [Compound 260]
21,100 to 1000,CC(=O)N1CCC(Oc2ccc(-c3c[nH]c4c(C#N)cccc34)nc2Cl)C1 (stereo not drawn) [Compound 261]

row,Structure (SMILES),IC50 [nM]
1,Cc1nc(-c2c[nH]c3c(C#N)cccc23)cnc1OC1CC2CCC1N2 (stereo not drawn) [Compound 223],1000 to 10000
